# Assay results taken from US20250302974A1, “LECTIN-DRUG CONJUGATES” (UNICHEM LABORATORIES LIMITED, priority 2021, published 2025).
# pIC50: −log10 of the molar value. Square brackets hold non-standard residues; d marks the D form. Peptide text beside a SMILES is read from it. * marks the point of attachment. Dolaproine = CO[C@@H]([C@@H]1CCCN1)[C@@H](C)C(=O)O; Dil = CC[C@H](C)[C@H](NC)[C@@H](CC(=O)O)OC; X1 = C[C@@H](N*)[C@@H](O)c1ccccc1; NMeV = CN[C@H](C(=O)O)C(C)C
# What was measured:
# [1] = test system: PA-1 cells; experiment: MTT cytotoxicity assay, PA-1 ovary; assay type: cell-based; details: Homo sapiens
# Experimental: (§1) The Untreated cells were used as Control. […] Cells were incubated for 3 h at 37° C. The supernatant was aspirated.
# (§2) The % Cytotoxicity was calculated using the formula: […]
# (§3) Selectivity Index was calculated using the formula:
# (§4) SI=IC50 in Normal cell/IC50 in cancer cell.
# [2] = test system: KB cells; experiment: MTT cytotoxicity assay, KB cervix; assay type: cell-based; details: Homo sapiens, 48 h
# Experimental: as §1, §2, §3, §4
# [3] = test system: T24 cells; experiment: MTT cytotoxicity assay, T24 bladder; assay type: cell-based; details: Homo sapiens, T-24
# Experimental: as §1, §2, §3, §4
# [4] = test system: A549 Lungs; experiment: Cytotoxic effect by MTT assay, 48 h; details: for Percent cytotoxicity wrt control: 48 h
# Experimental: Cells were treated with Test Items at various concentrations (0.0001 μM-10 μM) for 48 h. The cells corresponding to Positive Control group were treated with Doxorubicin at a concentration ranging from 0.1 μM-100 μM. The Untreated cells were used as Control. After 48 h of incubation, the effect of Test Items on cytotoxicity of cells was determined by MTT assay, the plates were taken out and 20 μl of 5 mg/m1 of MTT 3-(4,5-dimethythiazol-2-yl)-2,5-diphenyl tetrazolium bromide solution was added to all the wells. Cells were incubated for 3 h at 37° C. The supernatant was aspirated. 150 μl of DMSO was added to each well to dissolve formazan crystals. The absorbance of each well was then read at 540 nm using Synergy HT micro plate reader.
# The % Cytotoxicity was calculated using the formula:
# Where, X=Absorbance of cells treated with Test Item; R=Absorbance of Control cells (Untreated cells maintained in growth medium only).
# as §3, §4
# Activity scores of the Selective Index values were categorized as: • Not selective (SI value ≤1) • Moderately selective (1<SI value <5) • Selective (SI value ≥5)
# [5] = test system: U251 MG cells; experiment: MTT cytotoxicity assay, U251 MG brain; assay type: cell-based; details: Homo sapiens
# Experimental: as §1, §2, §3, §4
# [6] = test system: HT29 cells; experiment: MTT cytotoxicity assay, HT29 colon; assay type: cell-based; details: Homo sapiens, HT-29
# Experimental: as §1, §2, §3, §4
# [7] = test system: AGS cells; experiment: MTT cytotoxicity assay, AGS stomach; assay type: cell-based; details: Homo sapiens, 48 h
# Experimental: as §1, §2, §3, §4
# [8] = test system: PANC-1 cells; experiment: MTT cytotoxicity assay, PANC-1 pancreatic; assay type: cell-based; details: Homo sapiens
# Experimental: as §1, §2, §3, §4
# [9] = 0.0001 μm, read-out: Percent cytotoxicity wrt control
# [10] = 0.001 μm, read-out: Percent cytotoxicity wrt control
# [11] = 0.01 μm, read-out: Percent cytotoxicity wrt control
# [12] = 0.1 μm, read-out: Percent cytotoxicity wrt control
# [13] = 1 μm, read-out: Percent cytotoxicity wrt control
# [14] = 10 μm, read-out: Percent cytotoxicity wrt control
compound,measurement,setting,value
"CC[C@H](C)[C@@H]([C@@H](CC(=O)N1CCC[C@H]1[C@H](OC)[C@@H](C)C(=O)N[C@H](C)[C@@H](O)c1ccccc1)OC)N(C)C(=O)[C@@H](NC(=O)[C@@H](NC)C(C)C)C(C)C [MMAE, monomethyl auristatin E] (H-[NMeV]V[Dil][Dolaproine]-X1)",pIC50,"[1]; PA-1, 48 h",7.52
same,cytotoxicity at 0.0001 µM,"[1]; PA-1, 0.0001 μm, 48 h, read-out: Percent cytotoxicity wrt control",13.4%
same,cytotoxicity at 0.001 µM,"[1]; PA-1, 0.001 μm, 48 h, read-out: Percent cytotoxicity wrt control",57.5%
same,cytotoxicity at 0.01 µM,"[1]; PA-1, 0.01 μm, 48 h, read-out: Percent cytotoxicity wrt control",50%
same,cytotoxicity at 0.1 µM,"[1]; PA-1, 0.1 μm, 48 h, read-out: Percent cytotoxicity wrt control",57.5%
same,cytotoxicity at 1 µM,"[1]; PA-1, 1 μm, 48 h, read-out: Percent cytotoxicity wrt control",61.7%
same,cytotoxicity at 10 µM,"[1]; PA-1, 10 μm, 48 h, read-out: Percent cytotoxicity wrt control",58.3%
same,cytotoxicity at 0.0001 µM,[2]; [9],90.5%
same,cytotoxicity at 0.001 µM,[2]; [10],95.8%
same,cytotoxicity at 0.01 µM,[2]; [11],96.1%
same,cytotoxicity at 0.1 µM,[2]; [12],96.3%
same,cytotoxicity at 1 µM,[2]; [13],96.2%
same,cytotoxicity at 10 µM,[2]; [14],96.3%
same,pIC50,[2],10.00
same,cytotoxicity at 0.0001 µM,"[3]; T24, 0.0001 μm, 48 h, read-out: Percent cytotoxicity wrt control",51.8%
same,cytotoxicity at 0.001 µM,"[3]; T24, 0.001 μm, 48 h, read-out: Percent cytotoxicity wrt control",51.1%
same,cytotoxicity at 0.01 µM,"[3]; T24, 0.01 μm, 48 h, read-out: Percent cytotoxicity wrt control",46.1%
same,cytotoxicity at 0.1 µM,"[3]; T24, 0.1 μm, 48 h, read-out: Percent cytotoxicity wrt control",44.4%
same,cytotoxicity at 1 µM,"[3]; T24, 1 μm, 48 h, read-out: Percent cytotoxicity wrt control",44.4%
same,cytotoxicity at 10 µM,"[3]; T24, 10 μm, 48 h, read-out: Percent cytotoxicity wrt control",53.2%
same,pIC50,"[3]; T24, 48 h",11.00
same,Percent cytotoxicity wrt control,"[4]; A549, 0.0001 μM",27.9%
same,Percent cytotoxicity wrt control,"[4]; A549, 0.001 μM",39.3%
same,Percent cytotoxicity wrt control,"[4]; A549, 0.1 μM",58.8%
same,Percent cytotoxicity wrt control,"[4]; A549, 1 μM",83.6%
same,Percent cytotoxicity wrt control,"[4]; A549, 10 μM",75.8%
same,pIC50,"[4]; read-out: IC50 Values, A549 Lungs, after 48 h of treatment",8.00
same,cytotoxicity at 0.0001 µM,"[5]; U-251, 0.0001 μm, 48 h, read-out: Percent cytotoxicity wrt control",77.8%
same,cytotoxicity at 0.001 µM,"[5]; U-251, 0.001 μm, 48 h, read-out: Percent cytotoxicity wrt control",52.5%
same,cytotoxicity at 0.01 µM,"[5]; U-251, 0.01 μm, 48 h, read-out: Percent cytotoxicity wrt control",58.6%
same,cytotoxicity at 0.1 µM,"[5]; U-251, 0.1 μm, 48 h, read-out: Percent cytotoxicity wrt control",63.1%
same,cytotoxicity at 1 µM,"[5]; U-251, 1 μm, 48 h, read-out: Percent cytotoxicity wrt control",64.7%
same,cytotoxicity at 10 µM,"[5]; U-251, 10 μm, 48 h, read-out: Percent cytotoxicity wrt control",71%
same,pIC50,"[5]; U-251, 48 h",9.70
same,cytotoxicity at 0.0001 µM,"[6]; HT29, 0.0001 μm, 48 h, read-out: Percent cytotoxicity wrt control",44.1%
same,cytotoxicity at 0.001 µM,"[6]; HT29, 0.001 μm, 48 h, read-out: Percent cytotoxicity wrt control",44.6%
same,cytotoxicity at 0.01 µM,"[6]; HT29, 0.01 μm, 48 h, read-out: Percent cytotoxicity wrt control",50.6%
same,cytotoxicity at 0.1 µM,"[6]; HT29, 0.1 μm, 48 h, read-out: Percent cytotoxicity wrt control",50.4%
same,cytotoxicity at 1 µM,"[6]; HT29, 1 μm, 48 h, read-out: Percent cytotoxicity wrt control",51.9%
same,cytotoxicity at 10 µM,"[6]; HT29, 10 μm, 48 h, read-out: Percent cytotoxicity wrt control",55.9%
same,pIC50,"[6]; HT29, 48 h",7.30
same,cytotoxicity at 0.0001 µM,[7]; [9],30.9%
same,cytotoxicity at 0.001 µM,[7]; [10],31.7%
same,cytotoxicity at 0.01 µM,[7]; [11],32.6%
same,cytotoxicity at 0.1 µM,[7]; [12],48.2%
same,cytotoxicity at 1 µM,[7]; [13],48.4%
same,cytotoxicity at 10 µM,[7]; [14],54.4%
same,pIC50,[7],5.81
same,pIC50,"[8]; PANC-1, 48 h",8.82
same,cytotoxicity at 0.0001 µM,"[8]; PANC-1, 0.0001 μm, 48 h, read-out: Percent cytotoxicity wrt control",38.1%
same,cytotoxicity at 0.001 µM,"[8]; PANC-1, 0.001 μm, 48 h, read-out: Percent cytotoxicity wrt control",41%
same,cytotoxicity at 0.01 µM,"[8]; PANC-1, 0.01 μm, 48 h, read-out: Percent cytotoxicity wrt control",64.1%
same,cytotoxicity at 0.1 µM,"[8]; PANC-1, 0.1 μm, 48 h, read-out: Percent cytotoxicity wrt control",67.7%
same,cytotoxicity at 1 µM,"[8]; PANC-1, 1 μm, 48 h, read-out: Percent cytotoxicity wrt control",77.1%
same,cytotoxicity at 10 µM,"[8]; PANC-1, 10 μm, 48 h, read-out: Percent cytotoxicity wrt control",69.7%
